Measured values as given in patent US10201157B2 (priority 2013, dated 2019).
Like-named read-outs stand apart in the source and are kept apart here.

Columns and labels:
Rhizoctonia solani = experiment: B.2.4 microtest, activity against Rhizoctonia solani; format: cell-based; settings: MTP, 7 days after inoculation
Microdochium nivale = experiment: B.2.3 microtest, activity against Microdochium nivale; format: cell-based; settings: MTP, 7 days after inoculation
Pyricularia oryzae = format: cell-based; settings: MTP, 7 days after inoculation
[1] = tested on: seedcorn maggot (Della platura); experiment: Test B.1.4 control of seedcorn maggot, maximum exposure to treated soil; format: in vivo; settings: mortality 2 DAT
Description: For evaluating control of seedcorn maggot (Della platura) through maximum exposure, the insects were exposed to treated soil.
The compounds or mixtures were first dissolved in acetone, and then mixed with soil to obtain the desired different ppm concentrations (w/w) of compound/soil or mixture/soil. For experimental mixtures, identical volumes of both mixing partners were mixed together to achieve the desired respective concentrations. Treatments were applied in solution to dry, sifted (#10 sieve) play sand in a glass jar. Treatments were thoroughly incorporated by capping and shaking each jar by hand and allowing the solution to soak through the sand mass for at least 10 minutes. The jars were then uncapped and the sand was kept in a fume hood for 4 hours to evaporate the solvent.
After the sand was dry, 10 cm^3 of the treated sand was dispensed into a 1-oz. plastic cup with bone meal in the bottom as a food source. Each cup was moistened with 4 ml water, infested with five seedcorn maggot second-instar larvae, and covered. Each cup was a replicate and replication was 5×. The test was maintained in an incubator at 22±1° C. in the dark. Mortality (dead+moribund insects) was evaluated 2 days after treatment (DAT) and mean percent mortality was calculated relative to the untreated control.

Alternaria solani = experiment: B.2.2 microtest, activity against early blight; format: cell-based; settings: MTP, 7 days after inoculation
[2] = tested on: black cutworm (Agrotis ipsilon); experiment: Test B.1.3 control of black cutworm, direct contact (dip) method; format: in vivo; settings: for Average Control % 1 DAT: mortality 1 DAT; for Average Control % 5 DAT: mortality 5 DAT
Experimental: For evaluating control of black cutworm (Agrotis ipsilon) through direct contact method, the individual insects were dipped directly into compound solution.
The compounds or mixtures were dissolved in acetone at different concentrations. The compounds or mixtures were formulated using a solution containing 50% (v/v) acetone in water with 0.02 wt % Kinetic®. For experimental mixtures, identical volumes of both mixing partners were mixed together to achieve the desired respective concentrations. Second-instar black cutworms were dipped directly into solution for three seconds and then allowed to air dry on filter paper. One treated black cutworm larva was infested into each 16-cm^2 cell of a 32-cell rearing tray along with the excised shoot of a corn plant and a moistened cotton wick. Cells were then covered with adhesive bio-assay tray lids. Each cell was a replicate and replication was 16×. After infestation, the test was maintained in an incubator at 25.5±1° C. and a 14L:10D light cycle. Mortality (dead+moribund insects) was evaluated 1 and 5 days after treatment (DAT) and mean percent mortality was calculated relative to the untreated control.

[3] = tested on: western corn rootworm (Diabrotica virgifera virgifera); experiment: Test B.1.2 control of western corn rootworm, maximum exposure to treated soil; format: in vivo; settings: mortality 3 DAI
Description: For evaluating control of western corn rootworm (Diabrotica virgifera virgifera) through maximum exposure method, the insects were exposed to treated soil.
The compounds or mixtures were first dissolved in acetone, and then mixed with soil to obtain the desired different ppm concentrations (w/w) of compound/soil or mixture/soil. For experimental mixtures, identical volumes of both mixing partners were mixed together to achieve the desired respective concentrations. Treatments were applied in solution to sifted (#10 sieve) loamy sand in a plastic bag. Treatments were thoroughly incorporated by sealing and shaking each bag by hand and allowing the solution to soak through the soil mass for at least 10 minutes. Bags were then unsealed and kept open in a fume hood overnight to evaporate the solvent from the soil.
One day after treatment (DAT) water for moisture and water-soaked millet seed as a food source were added to each bag and incorporated thoroughly. About 11 cm^3 of the millet and soil mixture was dispensed into a 1-oz. plastic cup. Each cup was infested with 10 western corn rootworm second-instar larvae and covered. Each cup was a replicate and replication was 3×. The test was maintained in an incubator at 26±1° C. in the dark. Mortality (dead+moribund insects) was evaluated 3 days after infestation (DAI) and mean percent mortality was calculated relative to the untreated control.

[4] = tested on: root-knot nematodes (Meloidogyne spp.); experiment: Test B.1.5 control of root-knot nematodes, drench application on cucumber plants; format: in vivo; settings: four weeks after infestation
Experimental: For evaluating control of root-knot nematodes (Meloidogyne spp.) through exposure via drench application, the nematodes were introduced to treated cucumber plants.
The compounds or mixtures were dissolved in acetone at different concentrations. The compounds or mixtures were formulated using a solution containing 50% (v/v) acetone in water with 0.02 wt % Kinetic®. For experimental mixtures, identical volumes of both mixing partners were mixed together to achieve the desired respective concentrations.
Germinated cucumber seeds were planted in 1-oz black plastic cups (one seed per cup) with dry, sifted (#10 sieve) play sand. Treatments were applied as a drench in 7 ml solution to each cup which were held in a fume hood for 1 hour to allow acetone to evaporate. The cups were moved to an environmental chamber (25±2° C., 24 L) and watered daily for the duration of the test. Each cup was a replicate and replication was 5×. At the cucumber's cotyledon stage, each cup was infested with 500 root-knot nematode juveniles (J2s) in 1 ml distilled water.
Four weeks after infestation, cucumber roots were washed off and galls and egg masses were counted. Control was calculated as the reduction in galls or egg masses relative to the untreated control. Mean percent control was calculated for each treatment.

[5] = tested on: wireworm (Melanotus communis); experiment: Test B.1.1 control of wireworm, direct contact (dip) method; format: in vivo; settings: mortality 3 DAT
Experimental: For evaluating control of wireworm (Melanotus communis) through direct contact method, the individual insects were dipped directly into compound solution.
The compounds or mixtures were dissolved in acetone at different concentrations. The compounds or mixtures were formulated using a solution containing 50% (v/v) acetone in water with 0.02 wt % Kinetic®.
For the experimental mixtures, identical volumes of both mixing partners were mixed together to achieve the desired respective concentrations. Wireworms were dipped directly into solution for three seconds and then allowed to air dry on filter paper.
About 11 cm^3 of water-moistened loamy sand was dispensed into each 16-cm^2 cell of a 32-cell rearing tray. One treated wireworm larva was infested into each cell along with two germinating wheat seeds. Cells were then covered with adhesive bio-assay tray lids. Each cell was a replicate and replication was 10×. After infestation, the test was maintained in an incubator at 26±1° C. in the dark. Mortality (dead+moribund insects) was evaluated 3 days after treatment (DAT) and mean percent mortality was calculated relative to the untreated control.

Work on `Fc1ccc([C@]2(Cn3cncn3)O[C@H]2c2ccccc2Cl)cc1` (racemic) [Epoxiconazol, Epoxiconazole] yielded an Observed efficacy (Rhizoctonia solani; 0.001 ppm) of 0, an Observed efficacy (Rhizoctonia solani; 0.004 ppm) of 0 and an Observed efficacy (Rhizoctonia solani; 0.016 ppm) of 24. The Observed efficacy (Microdochium nivale; 0.004 ppm) was 8, the Observed efficacy (Microdochium nivale; 0.016 ppm) was 29 and the Observed efficacy (Pyricularia oryzae; 0.063 ppm) was 1. For the same molecule, the Observed efficacy (Pyricularia oryzae; 0.25 ppm) was 28.

`CN(C(=O)c1ccccc1)c1cccc(C(=O)Nc2c(Br)cc(C(F)(C(F)(F)F)C(F)(F)F)cc2C(F)(F)F)c1F` [Carboxamide compound of formula I] showed an Observed efficacy (Rhizoctonia solani; 1 ppm) of 0, an Observed efficacy (Rhizoctonia solani; 4 ppm) of 0 and an Observed efficacy (Rhizoctonia solani; 16 ppm) of 0. The “Average Control %” value ([1]; 0.06 ppm compound/soil) was 21%, the Observed efficacy (Alternaria solani; 1 ppm) was 0 and the Observed efficacy (Alternaria solani; 4 ppm) was 0. For the same molecule, the Observed efficacy (Alternaria solani; 16 ppm) was 0, the Observed efficacy (Alternaria solani; 63 ppm) was 0 and the “Average Control % 1 DAT” value ([2]; 3 ppm) was 38%. For the same molecule, the “Average Control % 5 DAT” value ([2]; 3 ppm) was 44%, the Observed efficacy (Microdochium nivale; 4 ppm) was 13 and the Observed efficacy (Microdochium nivale; 16 ppm) was 15. The Observed efficacy (Microdochium nivale; 63 ppm) was 4, the “Average Control %” value ([3]; 0.01 ppm compound/soil) was 30% and the “Average Egg Mass Control %” value ([4]; 0.3 mg compound/plant) was −21%. The “Average Gall Control %” value ([4]; 0.3 mg compound/plant) was 35%, the “Average Control %” value ([5]; 3 ppm) was 33% and the Observed efficacy (Pyricularia oryzae; 0.063 ppm) was 2. It also gave an Observed efficacy (Pyricularia oryzae; 1 ppm) of 12, an Observed efficacy (Pyricularia oryzae; 4 ppm) of 15 and an Observed efficacy (Pyricularia oryzae; 16 ppm) of 4.

For `CN/C(=N\[N+](=O)[O-])NCc1cnc(Cl)s1` [Clothianidin], the “Average Control %” value ([3]; 0.1 ppm compound/soil) was 33%.

With `CNC(=O)c1cc(C#N)cc(C)c1NC(=O)c1cc(Br)nn1-c1ncccc1Cl` [Cyantraniliprole, cyantraniliprole] the “Average Control %” value ([1]; 10 ppm compound/soil) was 64%, the “Average Control %” value ([3]; 3.1 ppm compound/soil) was 23% and the “Average Control %” value ([5]; 225 ppm) was 22%.

For `N#Cc1nn(-c2c(Cl)cc(C(F)(F)F)cc2Cl)c(N)c1[S+]([O-])C(F)(F)F` (centres unmarked) [Fipronil], the “Average Control % 1 DAT” value ([2]; 300 ppm) was 13%, the “Average Control % 5 DAT” value ([2]; 300 ppm) was 31% and the “Average Control %” value ([3]; 0.03 ppm compound/soil) was 27%. The “Average Control %” value ([5]; 30 ppm) was 22%.

`Cn1cc(C(=O)Nc2ccccc2-c2cc(F)c(F)c(F)c2)c(C(F)F)n1` [Fluxapyroxad] showed an Observed efficacy (Microdochium nivale; 0.004 ppm) of 0 and an Observed efficacy (Microdochium nivale; 0.063 ppm) of 0.

`O=[N+]([O-])NC1=NCCN1Cc1ccc(Cl)nc1` [Imidacloprid] was tested, and the “Average Control %” value ([1]; 3 ppm compound/soil) was 18% and the “Average Control %” value ([3]; 0.13 ppm compound/soil) was 17%.

Molecule `COC(=O)N(OC)c1ccccc1COc1ccn(-c2ccc(Cl)cc2)n1` [Pyraclostrobin] has an Observed efficacy (Alternaria solani; 0.016 ppm) of 0, an Observed efficacy (Alternaria solani; 0.063 ppm) of 12 and an Observed efficacy (Microdochium nivale; 0.016 ppm) of 46.

For `N#C/N=C1\SCCN1Cc1ccc(Cl)nc1` [Thiacloprid], the “Average Control %” value ([3]; 0.2 ppm compound/soil) was 37%.

In the case of `CN1COCN(Cc2cnc(Cl)s2)/C1=N\[N+](=O)[O-]` [Thiamethoxam], the “Average Control %” value ([5]; 25 ppm) is reported as 11%.

With `CC1(C)CCC(=Cc2ccc(Cl)cc2)C1(O)Cn1cncn1` (centres unmarked) [Triticonazol, Triticonazole] the Observed efficacy (Rhizoctonia solani; 0.25 ppm) was 41, the Observed efficacy (Alternaria solani; 0.25 ppm) was 0 and the Observed efficacy (Alternaria solani; 1 ppm) was 23.

For Abamectin, the “Average Egg Mass Control %” value ([4]; 0.008 mg compound/plant) was 17%, the “Average Gall Control %” value ([4]; 0.008 mg compound/plant) was 24% and the “Average Egg Mass Control %” value ([4]; 0.017 mg compound/plant) was 39%. The “Average Gall Control %” value ([4]; 0.017 mg compound/plant) was 40%.

emamectin was tested, and the “Average Control %” value ([5]; 800 ppm) was 11%.
